pIC50, pKd: −log10 of the molar value. Like-named read-outs stand apart in the source and are kept apart here. Where no end group is shown, it is not given here.
Tests used:
[1] = target: T1, DR2a (DRA*0101/DRB5*0101) (Homo sapiens, UniProt P01903+Q30154); assay: Competitive LOCI peptide-MHC-II binding assay, DR2a; conditions: for IC50: DR2a Komp IC50 (nM)
T1 construct: DRA*01011-181LZFos; DRB5*01011-190LZJunBSP; made in house

[2] = target: T1, DR2a (DRA*0101/DRB5*0101); assay: Direct LOCI peptide-MHC-II binding assay, DR2a
[3] = target: T2, DR3 (DRA*0101/DRB1*0301) (Homo sapiens, UniProt P01903+P01911, A100K/A102G/A103R/A169T/F55Y/I96L/K41T/L162R/M171V/P40S/Q125H/Q178H/Q39Y/R42S/S66N/T106N/T262R/W38E/Y61H); assay: Direct LOCI peptide-MHC-II binding assay, DR3
T2 construct: DRA*01011-181LZFos; DRB1*03011-190LZJunBSP; made in house

[4] = target: T3, DR4 (DRA*0101/DRB1*0401) (Homo sapiens, UniProt P01903+P01911, A100K/A169T/F76Y/I96L/K127E/L162R/M171V/N62H/P40V/Q125Y/R42H/S133A/S149N/S66Y/V115G/V209L/W38E); assay: Direct LOCI peptide-MHC-II binding assay, DR4; conditions: for Kd: DR4 affinity (nM)
T3 construct: DRA*01011-181LZFos; DRB1*04011-190LZJunBSP; made in house

[5] = target: T4, DRB1*0813 (DRA*0101/DRB1*0813) (Homo sapiens, UniProt P01903+P01911, A100R/A103L/A169T/F76Y/H45Y/I96L/K41T/L162R/M171V/P40S/Q125H/Q178H/Q39Y/Q99D/R218S/R42G/S66Y/V115G/W38E); assay: Direct LOCI peptide-MHC-II binding assay, DRB1*0813
T4 construct: DRA*01011-181LZFos; DRB1*08131-190LZJunBSP; made in house

[6] = target: T5, DRB3*0301 (DRA*0101/DRB3*0301) (Homo sapiens, UniProt P01903+P79483, A169T/A212P/D57E/G115V/L67V/Q178H/R103Q/R40L/Y55F); assay: Direct LOCI peptide-MHC-II binding assay, DRB3*0301
T5 construct: DRA*01011-181LZFos; DRB3*03011-190LZJunBSP; made in house

[7] = target: DP401 (DPA1*0103/DPB1*0401) (Homo sapiens, UniProt P04440+P20036); assay: Direct LOCI peptide-MHC-II binding assay, DP401; conditions: for Kd: DP401 affinity (nM)
[8] = target: T6, I-E^d (Mus musculus, UniProt P01904+P01915); assay: Direct LOCI peptide-MHC-II binding assay, I-E^d; conditions: for Kd: I-E^D affinity (nM)
T6 construct: I-E^dA1-191LZFos; I-E^dB1-198LZJunBSP; made in house

[9] = pH 6-7, 48 h 18°C, read-out: DR3 affinity
[10] = pH 7, 48 h 18°C, read-out: DRB3*0301 affinity
[11] = pH 6-7.5, 48 h 18°C, read-out: DR2a Komp IC50
[12] = pH 6, 48 h 18°C, read-out: DR2a pH6 affinity
[13] = pH 6-7.5, 48 h 18°C, read-out: DRB1*0813 affinity
[14] = pH 7, 48 h 18°C, read-out: DP401 affinity
[15] = 48 h 18°C, read-out: I-E^D affinity

Molecule	IC50 [1]	pKd [2]	pKd [3]	Kd [4]	pKd [5]	pKd [6]	Kd [7]	Kd [8]	pIC50 [1]	pKd [8]	also measured
CC[C@H](C)[C@H](NC(=O)[C@@H](N)CCCCN)C(=O)N[C@@H](CC(C)C)C(=O)N[C@@H](CCC(=O)O)C(=O)N1CCC[C@H]1C(=O)N[C@@H](Cc1ccccc1)C(=O)N[C@@H](CCCNC(=N)N)C(=O)N[C@@H](CCCCN)C(=O)N[C@@H](Cc1ccc(O)cc1)C(=O)N[C@H](C(=O)N[C@@H](C)C(=O)N[C@@H](Cc1ccccc1)C(=O)N[C@H](C(=O)N[C@H](C(=O)N1CCC[C@H]1C(=O)O)[C@@H](C)CC)[C@@H](C)O)[C@@H](C)O	1 nM	7.80	7.74	1600 nM	7.96	5.99	30 nM	2200 nM			
CC(C)C[C@H](NC(=O)CNC(=O)[C@H](Cc1c[nH]c2ccccc12)NC(=O)CNC(=O)[C@@H](NC(=O)[C@@H]1CCCN1C(=O)[C@@H](NC(=O)[C@H](C)NC(=O)[C@H](CC(=O)O)NC(=O)[C@H](C)NC(=O)[C@H](Cc1ccccc1)NC(=O)[C@@H](NC(=O)[C@H](CCC(N)=O)NC(=O)[C@H](CS)NC(=O)[C@H](CC(C)C)NC(=O)[C@@H](N)Cc1ccc(O)cc1)C(C)C)[C@@H](C)O)[C@@H](C)O)C(=O)O		5.43	7.16		5.52	5.69			< 5.30	< 5.30	pKd [4]: 7.74; pKd [7]: 7.89
CC[C@H](C)[C@H](NC(=O)[C@H](Cc1ccccc1)NC(=O)[C@@H]1CCCN1C(=O)[C@@H](N)Cc1ccc(O)cc1)C(=O)N[C@@H](CCC(=O)O)C(=O)N[C@@H](CCC(N)=O)C(=O)N[C@@H](CCC(=O)O)C(=O)NCC(=O)N1CCC[C@H]1C(=O)N[C@@H](CCC(=O)O)C(=O)N[C@@H](Cc1ccccc1)C(=O)N[C@@H](Cc1ccccc1)C(=O)N[C@@H](CC(=O)O)C(=O)N[C@@H](CCC(N)=O)C(=O)N[C@@H](CCC(=O)O)C(=O)O	> 5000 nM	< 5.30			< 5.30		> 5000 nM	> 5000 nM			pKd [3, 9]: 6.54; pKd [6, 10]: 5.49
CC[C@H](C)[C@H](NC(=O)[C@H](Cc1c[nH]cn1)NC(=O)[C@H](Cc1c[nH]cn1)NC(=O)[C@H](Cc1c[nH]cn1)NC(=O)[C@H](Cc1c[nH]cn1)NC(=O)[C@H](Cc1c[nH]cn1)NC(=O)[C@H](Cc1c[nH]cn1)NC(=O)[C@@H](N)Cc1ccc(O)cc1)C(=O)N[C@@H](CCC(=O)O)C(=O)NCC(=O)N[C@@H](CCCNC(=N)N)C(=O)N[C@@H](CO)C(=O)N[C@@H](Cc1ccccc1)C(=O)N[C@@H](CCC(=O)O)C(=O)N[C@@H](CCCNC(=N)N)C(=O)N[C@@H](Cc1ccccc1)C(=O)N[C@@H](CCC(=O)O)C(=O)N[C@H](C(=O)N[C@@H](Cc1ccccc1)C(=O)N1CCC[C@H]1C(=O)N[C@@H](CCCCN)C(=O)N[C@@H](CCC(=O)O)C(=O)O)[C@@H](C)CC [6xH Influenza A (PR8) HA 109–119]		8.05	5.84		6.74	5.82			7.64	6.01	pKd [4]: 5.73; pKd [7]: 9.00
CSCC[C@H](NC(=O)[C@H](CCCNC(=N)N)NC(=O)[C@H](CCSC)NC(=O)[C@H](CCCCN)NC(=O)[C@H](CO)NC(=O)[C@@H](NC(=O)[C@@H]1CCCN1C(=O)[C@H](CCCCN)NC(=O)[C@@H]1CCCN1C(=O)[C@@H]1CCCN1C(=O)[C@H](CCCCN)NC(=O)[C@@H]1CCCN1C(=O)[C@@H](N)CC(C)C)C(C)C)C(=O)N[C@@H](C)C(=O)N[C@H](C(=O)N1CCC[C@H]1C(=O)N[C@@H](CC(C)C)C(=O)N[C@@H](CC(C)C)C(=O)N[C@@H](CCSC)C(=O)N[C@@H](CCC(N)=O)C(=O)N[C@@H](C)C(=O)N[C@@H](CC(C)C)C(=O)N1CCC[C@H]1C(=O)N[C@@H](CCSC)C(=O)N[C@@H](Cc1ccc(O)cc1)C(=O)N[C@@H](Cc1c[nH]cn1)C(=O)N[C@@H](Cc1c[nH]cn1)C(=O)N[C@@H](Cc1c[nH]cn1)C(=O)N[C@@H](Cc1c[nH]cn1)C(=O)N[C@@H](Cc1c[nH]cn1)C(=O)N[C@@H](Cc1c[nH]cn1)C(=O)O)[C@@H](C)O [CLIP 6xH]											pIC50 ([1]; competitive LOCI, 4 nM biotin-PEG-HA306–318 agonist, β chain without biotin, α/β 13/5 nM, pH 6-7.5, L243, 48 h 18°C, average of 2–4 measurements, read-out: DR2a Komp IC50): 9.00; pKd ([2]; read-out: DR2a pH6 affinity): 9.00; pKd ([3]; read-out: DR3 affinity): 9.00; pKd ([4]; read-out: DR4 affinity): 9.00; pKd ([5]; read-out: DRB1*0813 affinity): 8.70; pKd ([6]; read-out: DRB3*0301 affinity): 9.00; pKd ([7]; read-out: DP401 affinity): 9.00
CC[C@H](C)[C@H](NC(=O)CNC(=O)[C@@H](NC(=O)[C@H](Cc1ccccc1)NC(=O)[C@H](CCCCN)NC(=O)[C@H](CO)NC(=O)[C@H](CC(N)=O)NC(=O)[C@H](C)NC(=O)[C@H](CCCCN)NC(=O)[C@@H](NC(=O)[C@H](Cc1ccc(O)cc1)NC(=O)[C@@H](N)CCC(N)=O)[C@@H](C)CC)[C@@H](C)CC)C(=O)N[C@H](C(=O)N[C@@H](CCC(=O)O)C(=O)O)[C@@H](C)O [Clostridium tetanus]						9.00				5.82	pKd [7]: 7.25
CC[C@H](C)[C@H](N)C(=O)N[C@H](C(=O)N[C@@H](Cc1ccccc1)C(=O)N[C@@H](CCSC)C(=O)N[C@@H](Cc1c[nH]c2ccccc12)C(=O)N[C@@H](C)C(=O)N[C@H](C(=O)N[C@@H](Cc1c[nH]cn1)C(=O)N[C@@H](Cc1c[nH]cn1)C(=O)O)[C@@H](C)CC)C(C)C [Flu HA1194-202]		6.78	< 5.30		6.56	< 5.30			6.28	< 5.30	pKd [4]: < 5.30; pKd [7]: < 5.30
CSCC[C@H](NC(=O)[C@@H](N)Cc1ccccc1)C(=O)N[C@@H](CO)C(=O)N[C@@H](CCCNC(=N)N)C(=O)N[C@@H](CCCCN)C(=O)N[C@@H](CC(C)C)C(=O)N[C@@H](Cc1c[nH]cn1)C(=O)N[C@@H](CCCNC(=N)N)C(=O)N[C@@H](Cc1ccc(O)cc1)C(=O)O [Hantaan]		< 5.30							5.59	8.52	
CC[C@H](C)[C@H](NC(=O)[C@@H](N)Cc1ccc(O)cc1)C(=O)N[C@@H](CC(=O)O)C(=O)N[C@H](C(=O)N[C@@H](Cc1c[nH]c2ccccc12)C(=O)N[C@@H](CC(C)C)C(=O)NCC(=O)NCC(=O)N[C@@H](CC(C)C)C(=O)N[C@@H](C)C(=O)N[C@@H](CCC(=O)O)C(=O)N[C@@H](CC(N)=O)C(=O)N[C@@H](Cc1ccccc1)C(=O)N[C@@H](CC(C)C)C(=O)N1CCC[C@H]1C(=O)N[C@@H](Cc1ccc(O)cc1)C(=O)O)C(C)C [Thyroid peroxidase]	691 nM	5.67	< 5.30	> 5000 nM	< 5.30	5.50	602 nM	> 5000 nM			
FLIDLAFLI [Pox.o42.con A2]											pIC50 [1, 11]: 5.37; pKd [2, 12]: < 5.30; pKd [3, 9]: < 5.30; pKd ([4]; pH 6-7.5, 48 h 18°C, read-out: DR4 affinity): < 5.30; pKd [5, 13]: < 5.30; pKd [6, 10]: < 5.30; pKd [7, 14]: 6.75; pKd [8, 15]: < 5.30
FLYGALLLA [MBP]	> 5000 nM	< 5.30	< 5.30	> 5000 nM	< 5.30		34 nM	> 5000 nM			
GVTYEIDLTNKN [Mycobact leprea]	> 5000 nM	< 5.30	5.36	2550 nM	< 5.30	< 5.30	> 5000 nM	> 5000 nM			
HHHHHHIEGRFAALWFRNHFVFGGGTK [6xH Lambda 2(315)]	20 nM	8.30	6.05	11 nM	8.10	5.92	2 nM	26 nM			
WMARRHAER [Brucella]		< 5.30							< 5.30	8.22	
YILFLVKMNALRRLPV											pIC50 [1, 11]: 7.70; pKd [2, 12]: 8.30; pKd [3, 9]: 7.41; pKd [5, 13]: 7.11; pKd [6, 10]: 8.52; pKd [7, 14]: 7.35; pKd [8, 15]: 6.24
YLFFYRKSV [TERT572Y]	> 5000 nM	5.58	< 5.30	1590 nM	7.02		> 5000 nM	322 nM			

From PMC2690590, “Functional recombinant MHC class II molecules and high-throughput peptide-binding assays” (Immunome Research, 2009)
